According to patent US9056067B2, “Pharmaceutical composition for enhancing immunity, and extract of Poria” (Sinphar Pharmaceutical Co., Ltd., priority 2003, dated 2015):

Key:
Assay type in all cases: in vivo, mice
IgG [1] = assay: Serum level of IgG (ELISA)
Procedure: (§1) […] […] The control group was the mice feeding with an equal volume of saline (0.85% of NaCl). Mice were sacrificed at day five, and both the serum and spleen cells were collected. The sera were subsequently used to measure the concentration of IgG, IgM and IgA. The spleen cells were plated onto a 100 mm diameter culture plate and incubated at 37° C. for three hours. The non-adherent cells containing T-lymphocytes, B-lymphocytes and NK cells were collected and properly diluted as described in each assay.
(§2) The mouse to be sacrificed was cervical dislocated and sterilized with 70% ethanol. The cardiac punctuation was performed first to withdraw the blood. After the haemagglutination, the blood sample was subjected to centrifugation and the serum was collect. For isolation of spleen cells, the peritoneum was opened to remove the spleen. The fresh spleen was transferred to a culture plate containing 10 ml of RPMI-1640 culture medium. The spleen was then ground over a fine mesh to release the spleen cells. The spleen cells suspending in the medium were then removed and transferred to a 50-ml conical centrifuge tube. The tube was subjected to centrifugation at 1300 rpm for 10 min. The supernatant was discarded and the pellet was re-suspended in 1 ml of cold RBC lysing buffer containing EDTA-NH4Cl. The cells were incubated at room temperature for 10 min, followed by washing the cells three times with culture medium by centrifugation. The spleen cells were plated onto a 100 mm diameter culture plate and incubated at 37° C. for three hours. The non-adherent cells containing T-lymphocytes, B-lymphocytes and NK cells were collected and properly diluted as described in each assay.
(§3) An ELISA was performed in our study to measure the immunoglobulin concentration. Briefly, the spleen cells (5×10^5 cells/ml) were cultured in a medium containing RPMI 1640 supplemented with 10% fetal bovine serum (FBS), 2 mM L-glutamine, antibiotics and 5 μg/ml lipopolysaccharide (LPS; 1 μg/10^5 cells) for 5 days. LPS is a polyclonal activator of B lymphocyte. Culture spleen cell supernatants were collected at day 3, 4 and 5. IgA, IgG and IgM concentrations were measured using a sandwich ELISA technique.
(§4) A 96-well microtiter plate (Nunc-Immuno Plate, MaxiSorp, Nunc, Denmark) was precoated with 100 ng/well of capture antibodies at 4° C. overnight. The capture antibody was a rabbit anti-mouse IgG+IgA+IgM antibody (Zymed Laboratory, CA). The plate was washed with PBS-0.05% Tween 20 solution and blocked with PBS-1% gelatin. After the blocking, the properly diluted samples (1/10^5 diluted) and standard IgG ranged from 0.25 μg/ml to 0.039 μg/ml were added (100 μl/well). The plate was then incubated at 37° C. for 2 h. At the end of incubation, HRP-conjugated goat anti-mouse IgG (1:2,000 diluted; anti-whole IgG molecule; Zymed Laboratory, CA) was added (100 μl/well). After 1 h of incubation at 37° C., the color was developed using a substrate solution containing 0.1 M citrate buffer, pH 4.5, 0.03% H2O2 and 0.1% of o-phenylenediamine. The absorbence at 490 nm in each well was read using an ELISA reader (EL311, BioTek, VT), and the data was analyzed using log-logit model.

IgG [2] = assay: IgG secretion by spleen cells in vitro (LPS, ELISA) after oral administration
Procedure: as §1, §2, §3, §4

IgA = IgA secretion by spleen cells in vitro (LPS, ELISA) after oral administration
Procedure: as §1, §2, §3
The procedure for IgA assay was similar to that for IgG assay, except that the samples were 1/10^4 diluted and standard IgA ranged from 1 μg/ml to 0.0156 μg/ml were added (100 μl/well). The secondary antibody for the assay was HRP-conjugated goat anti-mouse IgA (1:1000 diluted; Zymed Laboratory, CA).

[3] = oral 10 mg/kg/day for four days
[4] = oral 20 mg/kg/day for four days

Row | Structure (SMILES) | Serum immunoglobulin concentration IgG (IgG [1]; oral 5 mg/kg/day for four days) | Serum immunoglobulin concentration IgG (IgG [1]; [3]) | Serum immunoglobulin concentration IgG (IgG [1]; [4]) | IgG secretion by spleen cell, incubation day 3 (IgG [2]; oral 5 mg/kg/day for four days) | IgG secretion by spleen cell, incubation day 4 (IgG [2]; oral 5 mg/kg/day for four days) | IgG secretion by spleen cell, incubation day 5 (IgG [2]; oral 5 mg/kg/day for four days) | IgG secretion by spleen cell, incubation day 3 (IgG [2]; [3]) | IgG secretion by spleen cell, incubation day 4 (IgG [2]; [3]) | IgG secretion by spleen cell, incubation day 5 (IgG [2]; [3]) | IgG secretion by spleen cell, incubation day 3 (IgG [2]; [4]) | IgG secretion by spleen cell, incubation day 4 (IgG [2]; [4]) | IgG secretion by spleen cell, incubation day 5 (IgG [2]; [4]) | IgA secretion by spleen cell, incubation day 3 (IgA; oral 5 mg/kg/day for four days) | IgA secretion by spleen cell, incubation day 4 (IgA; oral 5 mg/kg/day for four days) | IgA secretion by spleen cell, incubation day 5 (IgA; oral 5 mg/kg/day for four days) | IgA secretion by spleen cell, incubation day 3 (IgA; [3]) | IgA secretion by spleen cell, incubation day 4 (IgA; [3]) | IgA secretion by spleen cell, incubation day 5 (IgA; [3]) | IgA secretion by spleen cell, incubation day 3 (IgA; [4]) | IgA secretion by spleen cell, incubation day 4 (IgA; [4]) | other results
1 | C=C(CC[C@@H](C(=O)O)[C@H]1[C@H](O)C[C@@]2(C)C3=CC[C@H]4C(C)(C)C(=O)CC[C@]4(C)C3=CC[C@]12C)C(C)C [K3] | 1.32 ± 0.09 mg/mL | 1.28 ± 0.13 mg/mL | 1.14 ± 0.11 mg/mL | 3.85 ± 0.73 | 3.43 ± 0.40 | 4.46 ± 0.95 | 3.18 ± 0.55 | 3.16 ± 0.62 | 3.48 ± 0.43 | 6.12 ± 0.70 | 7.10 ± 1.39 | 8.56 ± 1.34 | 32.83 ± 7.00 | 27.37 ± 5.83 | 21.96 ± 4.17 | 26.57 ± 3.68 | 28.97 ± 5.95 | 18.87 ± 2.66 | 43.08 ± 4.05 | 43.45 ± 5.92 | Effect on IgG secretion by spleen cells (in words) (IgG [2]; oral): significantly suppressed; Effect on IgA secretion by spleen cells (in words) (IgA; oral): significantly suppressed; IgA secretion by spleen cell, incubation day 5 (IgA; [4]): 30.50 ± 3.60
2 | C=C(CCC(C(=O)O)C1C(O)CC2(C)C3=CCC4C(C)(CCC(O)C4(C)C)C3=CCC12C)C(C)C (stereo not drawn) [K4] | 3.75 ± 0.18 mg/mL | 4.33 ± 0.29 mg/mL | 4.18 ± 0.25 mg/mL | 12.55 ± 3.08 | 12.99 ± 0.86 | 18.29 ± 0.92 | 6.54 ± 1.43 | 15.15 ± 5.16 | 22.59 ± 5.35 | 21.23 ± 3.19 | 19.11 ± 4.23 | 22.56 ± 3.84 | 55.56 ± 4.71 | 79.51 ± 3.74 | 106.69 ± 7.29 | 66.43 ± 5.26 | 95.39 ± 10.08 | 121.97 ± 12.69 | 119.59 ± 15.08 | 101.53 ± 25.08 | IgA secretion by spleen cell, incubation day 5 (IgA; [4]): 133.16 ± 20.09; Dose with increase in IgA secretion by spleen cells (IgA; oral, PCM-K1 at day 3 and day 5): ≥ 5 mg/kg/day
